According to PMC10653547, “Synergistic effect of two antimicrobial peptides, BP203 and MAP-0403 J-2 with conventional antibiotics against colistin-resistant Escherichia coli and Klebsiella pneumoniae clinical isolates” (PLOS ONE, 2023):

Columns and labels:
[1] = test system: colistin-resistant E. coli clinical isolates; assay: Checkerboard assay for synergy testing; format: cell-based, Escherichia coli
Experimental: (§1) The synergistic activities of various two-antimicrobial combinations against colistin-resistant E. coli and K. pneumoniae isolates were evaluated using the checkerboard assay, which was performed in 96-well plates. […] Two-fold serial dilutions of peptides and antibiotics were independently prepared in CAMHB. Afterward, a mixture of different concentrations of the antibiotics and peptides was added to the wells of the microplates. Antibiotics and peptides were also dispended alone in the first row and the first column, respectively. Bacterial inoculum was added to the 96-well plate to achieve a final concentration of 5 × 10^5 CFU/mL. Then, plates were incubated at 37 °C for 20–24 h. MICs were recorded as the minimum concentration of antimicrobial agents without bacterial growth. The interaction between the antimicrobials was determined by calculating the fractional inhibitory concentration index (FICI) according to the formula: FICI = FIC(drug A) + FIC(drug B), where FIC = the MIC of the drug when in the combination/MIC of drug tested individually.

[2] = test system: colistin-resistant K. pneumoniae clinical isolates; assay: Disk diffusion antimicrobial susceptibility testing (CLSI); format: cell-based, Klebsiella pneumoniae; for Interpreted results of disk diffusion: key: R: resistant; I: intermediate; SDD: susceptible-dose dependent; S: sensitive
Experimental: (§2) Ten non-duplicate clinical isolates of colistin-resistant E. coli (EC) and ten non-duplicate clinical isolates of colistin-resistant K. pneumoniae (KP) were obtained from the bacterial repository of the Division of Infectious Diseases and Tropical Medicine, Department of Medicine, Faculty of Medicine Siriraj Hospital, Mahidol University. The species identification was conducted through standard biochemical tests. Antimicrobial susceptibility testing was carried out using the disk diffusion method following CLSI guidelines. Additionally, the assessment of colistin resistance in all isolates was performed by broth microdilution following CLSI recommendations. […] The amino acid sequences of BP203 and MAP-0403 J-2 were retrieved from previous studies. These peptides are BP100 and MAP-0403 analogs, respectively. […] Antibiotic disks and defibrinated sheep blood were obtained from Oxoid (Basingstoke, UK). All culture media were purchased from Becton Dickinson (Frankin Lakes, NJ, USA). All chemicals were obtained from Sigma-Aldrich (St. Louis, MO, USA).

[3] = test system: colistin-resistant K. pneumoniae clinical isolates; assay: Checkerboard assay for synergy testing; format: cell-based, Klebsiella pneumoniae
Experimental: as §1

[4] = test system: colistin-resistant E. coli clinical isolates; assay: Disk diffusion antimicrobial susceptibility testing (CLSI); format: cell-based, Escherichia coli
Experimental: as §2

[5] = isolate EC-01, checkerboard Chloramphenicol+BP203
[6] = isolate EC-01, checkerboard Chloramphenicol+MAP-0403 J-2
[7] = isolate EC-02, checkerboard Chloramphenicol+BP203
[8] = isolate EC-02, checkerboard Chloramphenicol+MAP-0403 J-2
[9] = isolate EC-03, checkerboard Chloramphenicol+BP203
[10] = isolate EC-03, checkerboard Chloramphenicol+MAP-0403 J-2
[11] = isolate EC-04, checkerboard Chloramphenicol+BP203
[12] = isolate EC-05, checkerboard Chloramphenicol+BP203
[13] = isolate EC-05, checkerboard Chloramphenicol+MAP-0403 J-2
[14] = isolate EC-06, checkerboard Chloramphenicol+BP203
[15] = isolate EC-06, checkerboard Chloramphenicol+MAP-0403 J-2
[16] = isolate EC-07, checkerboard Chloramphenicol+BP203
[17] = isolate EC-07, checkerboard Chloramphenicol+MAP-0403 J-2
[18] = isolate EC-08, checkerboard Chloramphenicol+BP203
[19] = isolate EC-08, checkerboard Chloramphenicol+MAP-0403 J-2
[20] = isolate EC-09, checkerboard Chloramphenicol+BP203
[21] = isolate EC-09, checkerboard Chloramphenicol+MAP-0403 J-2
[22] = isolate EC-10, checkerboard Chloramphenicol+BP203
[23] = isolate EC-10, checkerboard Chloramphenicol+MAP-0403 J-2
[24] = isolate KP-01, checkerboard Chloramphenicol+BP203
[25] = isolate KP-01, checkerboard Chloramphenicol+MAP-0403 J-2
[26] = isolate KP-02, checkerboard Chloramphenicol+BP203
[27] = isolate KP-02, checkerboard Chloramphenicol+MAP-0403 J-2
[28] = isolate KP-03, checkerboard Chloramphenicol+BP203
[29] = isolate KP-03, checkerboard Chloramphenicol+MAP-0403 J-2
[30] = isolate KP-04, checkerboard Chloramphenicol+BP203
[31] = isolate KP-04, checkerboard Chloramphenicol+MAP-0403 J-2
[32] = isolate KP-05, checkerboard Chloramphenicol+BP203
[33] = isolate KP-05, checkerboard Chloramphenicol+MAP-0403 J-2
[34] = isolate KP-06, checkerboard Chloramphenicol+BP203
[35] = isolate KP-06, checkerboard Chloramphenicol+MAP-0403 J-2
[36] = isolate KP-07, checkerboard Chloramphenicol+BP203
[37] = isolate KP-07, checkerboard Chloramphenicol+MAP-0403 J-2
[38] = isolate KP-08, checkerboard Chloramphenicol+BP203
[39] = isolate KP-08, checkerboard Chloramphenicol+MAP-0403 J-2
[40] = isolate KP-09, checkerboard Chloramphenicol+BP203
[41] = isolate KP-09, checkerboard Chloramphenicol+MAP-0403 J-2
[42] = isolate KP-10, checkerboard Chloramphenicol+BP203
[43] = isolate KP-10, checkerboard Chloramphenicol+MAP-0403 J-2

O=C(N[C@H](CO)[C@H](O)c1ccc([N+](=O)[O-])cc1)C(Cl)Cl [C, chloramphenicol]
MIC alone [1, 5]: 128 µg/mL | MIC combination [1, 5]: 1 µg/mL | MIC alone [1, 6]: 128 µg/mL | MIC combination [1, 6]: 64 µg/mL | MIC alone [1, 7]: 64 µg/mL | MIC combination [1, 7]: 32 µg/mL | MIC alone [1, 8]: 64 µg/mL | MIC combination [1, 8]: 32 µg/mL | MIC alone [1, 9]: 64 µg/mL | MIC combination [1, 9]: 32 µg/mL | MIC alone [1, 10]: 64 µg/mL | MIC combination [1, 10]: 16 µg/mL | MIC alone [1, 11]: 32 µg/mL | MIC combination [1, 11]: 1 µg/mL | MIC combination ([1]; isolate EC-04, checkerboard Chloramphenicol+MAP-0403 J-2): 128 µg/mL | MIC alone [1, 12]: 64 µg/mL | MIC combination [1, 12]: 32 µg/mL | MIC alone [1, 13]: 64 µg/mL | MIC combination [1, 13]: 32 µg/mL | MIC alone [1, 14]: 16 µg/mL | MIC combination [1, 14]: 4 µg/mL | MIC alone [1, 15]: 8 µg/mL | MIC combination [1, 15]: 4 µg/mL | MIC alone [1, 16]: 256 µg/mL | MIC combination [1, 16]: 64 µg/mL | MIC alone [1, 17]: 64 µg/mL | MIC combination [1, 17]: 32 µg/mL | MIC alone [1, 18]: 64 µg/mL | MIC combination [1, 18]: 32 µg/mL | MIC alone [1, 19]: 64 µg/mL | MIC combination [1, 19]: 16 µg/mL | MIC alone [1, 20]: 256 µg/mL | MIC combination [1, 20]: 64 µg/mL | MIC alone [1, 21]: 256 µg/mL | MIC combination [1, 21]: 64 µg/mL | MIC alone [1, 22]: 256 µg/mL | MIC combination [1, 22]: 32 µg/mL | MIC alone [1, 23]: 256 µg/mL | MIC combination [1, 23]: 64 µg/mL | Interpreted results of disk diffusion ([2]; KP-01): R | Interpreted results of disk diffusion ([2]; KP-02): R | Interpreted results of disk diffusion ([2]; KP-03): S | Interpreted results of disk diffusion ([2]; KP-04): S | Interpreted results of disk diffusion ([2]; KP-05): S | Interpreted results of disk diffusion ([2]; KP-06): R | Interpreted results of disk diffusion ([2]; KP-07): I | Interpreted results of disk diffusion ([2]; KP-08): S | Interpreted results of disk diffusion ([2]; KP-09): I | Interpreted results of disk diffusion ([2]; KP-10): R | %Resistance ([2]; ten K. pneumoniae isolates, disk diffusion): 40% | MIC alone [3, 24]: 512 µg/mL | MIC combination [3, 24]: 128 µg/mL | MIC alone [3, 25]: 1020 µg/mL | MIC combination [3, 25]: 256 µg/mL | MIC alone [3, 26]: 512 µg/mL | MIC combination [3, 26]: 128 µg/mL | MIC alone [3, 27]: 512 µg/mL | MIC combination [3, 27]: 128 µg/mL | MIC alone [3, 28]: 8 µg/mL | MIC combination [3, 28]: 2 µg/mL | MIC alone [3, 29]: 8 µg/mL | MIC combination [3, 29]: 2 µg/mL | MIC alone [3, 30]: 8 µg/mL | MIC combination [3, 30]: 4 µg/mL | MIC alone [3, 31]: 8 µg/mL | MIC combination [3, 31]: 2 µg/mL | MIC alone [3, 32]: 4 µg/mL | MIC combination [3, 32]: 2 µg/mL | MIC alone [3, 33]: 1020 µg/mL | MIC combination [3, 33]: 256 µg/mL | MIC alone [3, 34]: 512 µg/mL | MIC combination [3, 34]: 128 µg/mL | MIC alone [3, 35]: 32 µg/mL | MIC combination [3, 35]: 8 µg/mL | MIC alone [3, 36]: 512 µg/mL | MIC combination [3, 36]: 128 µg/mL | MIC alone [3, 37]: 8 µg/mL | MIC combination [3, 37]: 4 µg/mL | MIC alone [3, 38]: 4 µg/mL | MIC combination [3, 38]: 1 µg/mL | MIC alone [3, 39]: 8 µg/mL | MIC combination [3, 39]: 4 µg/mL | MIC alone [3, 40]: 32 µg/mL | MIC combination [3, 40]: 4 µg/mL | MIC alone [3, 41]: 32 µg/mL | MIC combination [3, 41]: 16 µg/mL | MIC alone [3, 42]: 64 µg/mL | MIC combination [3, 42]: 8 µg/mL | MIC alone [3, 43]: 64 µg/mL | MIC combination [3, 43]: 4 µg/mL | Interpreted results of disk diffusion ([4]; EC-01): R | Interpreted results of disk diffusion ([4]; EC-02): R | Interpreted results of disk diffusion ([4]; EC-03): R | Interpreted results of disk diffusion ([4]; EC-04): R | Interpreted results of disk diffusion ([4]; EC-05): R | Interpreted results of disk diffusion ([4]; EC-06): S | Interpreted results of disk diffusion ([4]; EC-07): R | Interpreted results of disk diffusion ([4]; EC-08): R | Interpreted results of disk diffusion ([4]; EC-09): R | Interpreted results of disk diffusion ([4]; EC-10): R | %Resistance ([4]; ten E. coli isolates, disk diffusion): 90%
